The text below walks through data of US9738677B2, “Amphotericin B derivative with reduced toxicity” (priority 2014, dated 2017).

Structures are written as SMILES. Values after ≈ are worked out from the molar mass of the structure shown. “Also recorded” adds a separate entry of the source.

Assay [1] concerns S. cerevisiae. Put plainly: Broth microdilution MIC assay. Type of assay: cell-based. The conditions noted are these: Saccharomyces cerevisiae, 24 hours, 30° C., no visible growth. As to the method:
Exemplary methods for antifungal activity assays are as follows:
S. cerevisiae was maintained with yeast peptone dextrose (YPD) growth media consisting of 10 g/L yeast extract, 20 g/L peptone, 20 g/L dextrose, and 20 g/L agar for solid media. The media was sterilized by autoclaving at 250° F. for 30 min. Dextrose was subsequently added as a sterile 40% w/v solution in water (dextrose solutions were filter sterilized). Solid media was prepared by pouring sterile media containing agar (20 g/L) onto Corning (Corning, N.Y.) 100×20 mm polystyrene plates. Liquid cultures were incubated at 30° C. on a rotary shaker and solid cultures were maintained at 30° C. in an incubator.
The protocol for the broth microdilution assay was adapted from the Clinical and Laboratory Standards Institute document M27-A2. Clinical and Laboratory Standards Institute. Reference Method for Broth Dilution Antifungal Susceptibility Testing, M27-A2, Approved Standard 2nd Ed. Vol. 22, Number 15, 2002. 50 mL of YPD media was inoculated and incubated overnight at either 30° C. (S. cerevisiae) or 37° C. (C. albicans) in a shaker incubator. The cell suspension was then diluted with YPD to an OD600 of 0.10 (˜5×10^5 cfu/mL) as measured by a Shimadzu (Kyoto, Japan) PharmaSpec UV-1700 UV/Vis spectrophotometer. […]
For orientation: In broth dilution the organism is exposed to a series of concentrations in liquid medium.

Assay [2] deals with C. albicans. Put plainly: Mouse model of disseminated candidiasis, kidney fungal burden. Format: in vivo. To be noted: neutropenic mice, single intraperitoneal 16 mg/kg 2 hours post infection, kidneys at 24 hours post infection. The procedure: FIG. 7 is a bar graph depicting kidney fungal load (colony forming units, CFUs) in neutropenic mice inoculated intravenously with C. albicans, and then treated two hours later with a single intraperitoneal dose of vehicle or 16 mg/kg AmB or C2′epiAmB.
The antifungal efficacy of C2′epiAmB was tested in a mouse model of disseminated candidiasis. In this experiment neutropenic mice were infected with C. albicans via their tail veins, and then 2 hours post infection the mice were treated with a single intraperitoneal injection of 16 mg/kg AmB or C2′epiAmB. Then at 24 hours post infection the mice were sacrificed, and the fungal burden present in their kidneys was quantified.

Assay [3] is described as follows: ITC sterol binding, POPC LUVs containing 10% cholesterol. As to the method:
Isothermal Titration calorimetry (ITC)
In an optimized isothermal titration calorimetry (ITC)-based assay, an aqueous solution of AmB was titrated with a suspension of large unilamellar vesicles (LUVs) comprised of only 1-palmitoyl-2-oleoyl-sn-glycero-3-phosphocholine (POPC), and the net exotherm was recorded. The titration was repeated using POPC LUVs containing 10% ergosterol. […] The titration was repeated using C2′epiAmB. […] The ITC assay was also conducted with cholesterol in place of ergosterol.
Experiments were performed using a NanoITC isothermal titration calorimeter (TA Instruments, Wilmington, Del.). Solutions of the compounds to be tested were prepared by diluting a 60.0 mM stock solution of the compound in DMSO to 600 μM with K buffer (5.0 mM HEPES/KHEPES, pH=7.4). The final DMSO concentration in the solution was 1% v/v. Large unilamellar vesicles comprised of only 1-palmitoyl-2-oleoyl-sn-glycero-3-phosphocholine (POPC LUVs) were prepared and phosphorus and ergosterol content was quantified as described below. The LUV solutions were diluted with buffer and DMSO to give a final phospholipid concentration of 12.0 mM in a 1% DMSO/K buffer solution. Immediately prior to use, all solutions were incubated at 37° C. for 30 minutes and degassed under vacuum at 37° C. for 10 minutes. The reference cell of the instrument (volume=0.190 mL) was filled with a solution of 1% v/v DMSO/K buffer.
Palmitoyl oleoyl phosphatidylcholine (POPC) was obtained as a 20 mg/mL solution in CHCl3 from Avanti Polar Lipids (Alabaster, Ala.) and was stored at −20° C. under an atmosphere of dry argon and used within 1 month. A 4 mg/mL solution of ergosterol in CHCl3 was prepared monthly and stored at 4° C. under an atmosphere of dry argon. […]
NanoAnalyze software (TA Instruments) was used for baseline determination and integration of the injection heats, and Microsoft Excel was used for subtraction of dilution heats and the calculation of overall heat evolved. […] By this method, the overall heat evolved during the experiment was calculated using the following formula: […]

What is called MIC is the lowest concentration that inhibits growth of the organism. Low readings indicate inhibition by little substance, high ones a need for much substance. `C[C@@H]1[C@H](O)[C@@H](C)/C=C/C=C/C=C/C=C/C=C/C=C/C=C/[C@H](O[C@@H]2O[C@H](C)[C@@H](O)[C@H](N)[C@H]2O)CC2O[C@](O)(C[C@@H](O)C[C@@H](O)[C@H](O)CC[C@@H](O)C[C@@H](O)CC(=O)O[C@H]1C)C[C@H](O)[C@H]2C(=O)O` [C2′epiAmB]: the MIC in assay [1] came to 2 µM (≈ 1.85 µg/mL). Further, the “Reduction of kidney fungal burden relative to AmB” value in assay [2] is 0.5 log units. Besides, the Total exotherm in assay [3] (10% cholesterol LUVs, 600 μM compound) is -6.43 ± 2.80 µcal. Besides, the “Binding to cholesterol (in words)” value in assay [3] (within the limits of the binding assay) is recorded as “but not cholesterol; also recorded: not found to bind to cholesterol; also recorded: do not bind cholesterol”.
